Source: patent publication US10030027B2, “Soluble guanylate cyclase stimulators” (MERCK SHARP & DOHME CORP., priority 2015, dated 2018)

Target: sGC α1/β1 heterodimer (Homo sapiens (Human), UniProt Q02108+Q02153)
Assay: Cell-based sGC functional assay (cyclic GMP assay for sGC activator: CASA assay)
Set-up: % Activation: concentration or dose not given beside the values
Details: CHO-K1/sGC cells; for EC50: inflection point, 4P fit, read-out: IP; for Emax: CHO-K1, activity expressed as percentage of compound A (standard), read-out: % Activation
Text: Cell-Based sGC Functional Assay (Cyclic GMP Assay for sGC Activator: CASA Assay)
Soluble guanylate cyclase (sGC) is a heme-containing enzyme that converts GTP to secondary messenger cGMP. Increases in cGMP levels affect several physiological processes including vasorelaxation through multiple downstream pathways. […] Heme-dependent activators (HDAs) preferentially activate sGC containing a ferrous heme group. To determine the effect of sGC activators on enzyme activity, the CASA assay was developed to monitor the generation of cGMP in a cell line that stably expresses the heterodimeric sGC protein.
A CHO-K1 cell line stably expressing the sGC α1/β1 heterodimer was generated using a standard transfection protocol. CHO-K1 cells were transfected with plasmids pIREShyghsGCα1 and pIRESneo-hsGCβ1 simultaneously using FUGENE reagent. Clones that stably express both subunits were selected with hygromycin and neomycin for ˜2 weeks. Clone #7 was chosen for the assay and was designated CHO-K1/sGC. CHO-K1/sGC cells were maintained in F-K12 medium containing 10% heat-inactivated Fetal Bovine Serum (FBS), 100 μg/mL penicillin/streptomycin, 0.5 mg/mL hygromycin and 0.25 mg/mL G418. The cells were then cryopreserved in LN2. On the day of the assay, the cells were thawed and resuspended in EBSS Assay Buffer (Sigma, E3024) supplemented with 5 mM MgCl2, 10 mM HEPES (4-(2-hydroxyethyl)piperazine-1-ethanesulfonic acid) and 0.05% BSA (bovine serum albumin) (EAB) and cell density was then adjusted to 2.25×10^5/mL with EAB. IBMX (3-isobutyl-1-methylxanthin, 0.5 mM) was added to inhibit degradation of cGMP. Compounds were diluted from DMSO stock solutions and added to the assay at a final DMSO concentration of 2.5%. Cells were pre-incubated in the presence and absence of 1 μM of Diethylenetriamine/nitric oxide adduct (DETA-NO; Sigma, 17018) for 30 min at 25° C. Compounds are subsequently added and incubated for 1 hr at 37° C. At the end of the incubation period, the reaction was terminated and the cells were lysed with the detection reagents from Cisbio Kits. The level of intracellular cGMP was determined using an HTRF-based assay kit (CisBio, 62GM2PEC), which detects the displacement of a fluorescence labeled cGMP from its specific antibody. The cGMP produced by test compounds was directly compared to the maximum cGMP production (this value was set to equal 100% activation.) of the published sGC-HDA compound A:
(Example 1 in WO 2010/065275, published Jun. 10, 2010). The test compounds' activity were then expressed as a percentage of compound A, the standard in every experiment. This percent activation was calculated either in the presence or absence of DETA-NO which was then plotted. Inflection points (IP) and maximum fold induction was derived using Abase analysis software for 4P fit.

Chain of sGC α1/β1 heterodimer (Q02108 whole entry): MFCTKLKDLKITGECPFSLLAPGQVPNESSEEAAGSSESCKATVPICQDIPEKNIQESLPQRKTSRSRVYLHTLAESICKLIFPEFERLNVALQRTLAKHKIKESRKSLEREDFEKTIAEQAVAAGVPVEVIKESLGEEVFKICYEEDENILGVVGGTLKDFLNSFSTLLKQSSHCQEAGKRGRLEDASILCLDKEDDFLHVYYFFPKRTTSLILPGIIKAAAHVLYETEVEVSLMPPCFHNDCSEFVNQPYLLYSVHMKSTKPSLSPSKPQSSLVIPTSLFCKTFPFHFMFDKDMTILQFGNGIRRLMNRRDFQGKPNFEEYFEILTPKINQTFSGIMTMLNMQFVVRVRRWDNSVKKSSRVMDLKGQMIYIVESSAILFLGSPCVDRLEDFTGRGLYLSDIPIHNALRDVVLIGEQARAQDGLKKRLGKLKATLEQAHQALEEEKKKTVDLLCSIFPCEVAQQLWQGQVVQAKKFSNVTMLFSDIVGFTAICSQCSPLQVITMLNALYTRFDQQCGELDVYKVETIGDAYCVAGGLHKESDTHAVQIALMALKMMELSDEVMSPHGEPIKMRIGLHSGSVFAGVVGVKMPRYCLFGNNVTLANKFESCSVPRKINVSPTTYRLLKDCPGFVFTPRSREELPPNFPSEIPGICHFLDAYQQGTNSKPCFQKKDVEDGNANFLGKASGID
Chain of sGC α1/β1 heterodimer (Q02153 whole entry): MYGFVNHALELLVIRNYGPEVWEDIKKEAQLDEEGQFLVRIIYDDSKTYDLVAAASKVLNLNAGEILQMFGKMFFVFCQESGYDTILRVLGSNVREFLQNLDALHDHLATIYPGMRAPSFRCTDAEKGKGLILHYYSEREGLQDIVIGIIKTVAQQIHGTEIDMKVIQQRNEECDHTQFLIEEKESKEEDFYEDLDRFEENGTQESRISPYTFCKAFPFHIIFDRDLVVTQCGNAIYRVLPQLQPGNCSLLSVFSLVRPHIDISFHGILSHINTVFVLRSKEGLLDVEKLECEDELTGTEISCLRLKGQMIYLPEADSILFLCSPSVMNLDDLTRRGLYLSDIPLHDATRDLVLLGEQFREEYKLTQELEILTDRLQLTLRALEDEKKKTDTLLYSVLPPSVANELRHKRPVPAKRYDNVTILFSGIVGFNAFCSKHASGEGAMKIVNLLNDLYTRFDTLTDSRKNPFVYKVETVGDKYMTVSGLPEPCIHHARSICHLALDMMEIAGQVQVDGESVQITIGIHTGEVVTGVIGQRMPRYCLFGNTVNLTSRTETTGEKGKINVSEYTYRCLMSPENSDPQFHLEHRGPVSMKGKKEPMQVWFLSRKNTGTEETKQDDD

| SMILES | % Activation (activity expressed as percentage of compound A (standard)) [%] | EC50 [nM] | Emax [%] |
| --- | --- | --- | --- |
| CC1CCC(Cn2nc(-c3nc(N)c4c(n3)NC(=O)C4(C)c3nc(CC(C)(C)C(=O)O)co3)c3ccc(F)cc32)CC1 (racemic) [Example 137AB, 3-{2-[4-amino-2-{6-fluoro-1-[4-methylcyclohexylmethyl]-1H-indazol-3-yl}-5-methyl-6-oxo-6,7-dihydro-5H-pyrrolo[2,3-d]pyrimidin-5-yl]-1,3-oxazol-4-yl}-2,2-dimethylpropanoic acid] | 98.4 |  |  |
| CC(C)(Cc1ccc(C2(C)C(=O)Nc3nc(-c4nn(CCC(F)(F)C(F)(F)F)c5ncccc45)nc(N)c32)nc1)C(=O)O (stereo not shown) [Example 8B, 3-(6-{4-amino-5-methyl-6-oxo-2-[1-(3,3,4,4,4-pentafluoro-butyl)-1H-pyrazolo[3,4-b]pyridin-3-yl]-6,7-dihydro-5H-pyrrolo[2,3-d]pyrimidin-5-yl}pyridin-3-yl)-2,2-dimethyl-propanoic acid] |  | 1360 | 129 |
| CC1(c2cccc(CCC(=O)O)c2)C(=O)Nc2nc(-c3nn(Cc4ccccc4F)c4ncc(F)cc34)nc(N)c21 (stereo not shown) [Example 24A, 3-(3-{4-amino-2-[5-fluoro-1-(2-fluorobenzyl)-1H-pyrazolo[3,4-b]pyridin-3-yl]-5-methyl-6-oxo-6,7-dihydro-5H-pyrrolo[2,3-d]pyrimidin-5-yl}phenyl)propanoic acid] |  | 210 | 106 |
| CC1(c2cccc(CCC(=O)O)c2)C(=O)Nc2nc(-c3nn(Cc4ccccc4F)c4cc(Cl)ccc34)nc(N)c21 (stereo not shown) [Example 48A, 3-(3-{4-amino-2-(6-chloro-1-(2-fluorobenzyl)-1H-indazol-3-yl)-5-methyl-6-oxo-6,7-dihydro-5H-pyrrolo[2,3-d]pyrimidin-5-yl}phenyl)propanoic acid] |  | 257 | 102 |
| CC1(c2cccc(CCC(=O)O)c2)C(=O)Nc2nc(-c3nn(Cc4ccccc4F)c4ccccc34)nc(N)c21 (stereo not shown) [Example 53A, 3-(3-{4-amino-2-[1-(2-fluorobenzyl)-1H-indazol-3-yl]-5-methyl-6-oxo-6,7-dihydro-5H-pyrrolo[2,3-d]pyrimidin-5-yl}phenyl)propanoic acid] |  | 124 | 102 |
| CC1(c2nc(CCC(=O)O)co2)C(=O)Nc2nc(-c3nn(Cc4ccccc4F)c4ccccc34)nc(N)c21 (stereo not shown) [Example 54A, 3-(2-{4-amino-2-[1-(2-fluorobenzyl)-1H-indazol-3-yl]-5-methyl-6-oxo-6,7-dihydro-5H-pyrrolo[2,3-d]pyrimidin-5-yl}oxazol-4-yl)propanoic acid] |  | 490 | 106 |
| CC(C)(Cc1coc(C2(C)C(=O)Nc3nc(-c4nn(Cc5ccccc5F)c5ccccc45)nc(N)c32)n1)C(=O)O (stereo not shown) [Example 56A, 3-(2-{4-amino-2-[1-(2-fluorobenzyl)-1H-indazol-3-yl]-5-methyl-6-oxo-6,7-dihydro-5H-pyrrolo[2,3-d]pyrimidin-5-yl}oxazol-4-yl)-2,2-dimethylpropanoic acid] |  | 134 | 116 |
| C[C@@]1(c2ccc(CCC(=O)O)cc2)C(=O)Nc2nc(-c3nn(Cc4ccccc4F)c4ccc(F)cc34)nc(N)c21 [Example 71B, (S)-3-(4-{4-amino-2-[5-fluoro-1-(2-fluorobenzyl)-1H-indazol-3-yl]-5-methyl-6-oxo-6,7-dihydro-5H-pyrrolo[2,3-d]pyrimidin-5-yl}phenyl)propanoic acid] |  | 73 | 78 |

More lines, now with the values ahead:

| % Activation (activity expressed as percentage of compound A (standard)) [%] | EC50 [nM] | Emax [%] | SMILES |
| --- | --- | --- | --- |
|  | 186 |  | CC1(c2nn(C(C)(C)C(=O)O)c(=O)o2)C(=O)Nc2nc(-c3nn(CCC(F)(F)C(F)(F)F)c4cc(Cl)ccc34)nc(N)c21 (single isomer, unassigned) [Example 99B, 2-[5-{4-Amino-2-[6-chloro-1-(3,3,4,4,4-pentafluorobutyl)-1H-indazol-3-yl]-5-methyl-6-oxo-6,7-dihydro-5H-pyrrolo[2,3-d]pyrimidin-5-yl}-2-oxo-1,3,4-oxadiazol-3(2H)-yl]-2-methylpropanoic acid] |
|  |  | 82 | CC1(c2cn(CCC(=O)O)nn2)C(=O)Nc2nc(-c3nn(CCC(F)(F)C(F)(F)F)c4cc(Cl)ccc34)nc(N)c21 (stereo not shown) [Example 29B, 3-(4-{4-amino-2-[6-chloro-1-(3,3,4,4,4-pentafluorobutyl)-1H-indazol-3-yl]-5-methyl-6-oxo-6,7-dihydro-5H-pyrrolo[2,3-d]pyrimidin-5-yl}-1H-1,2,3-triazol-1-yl)propanoic acid] |
|  | 119 | 91 | CC1(c2nc(CCCC(=O)O)cs2)C(=O)Nc2nc(-c3nn(Cc4ccccc4F)c4cc(Cl)ccc34)nc(N)c21 (stereo not shown) [Example 49A, 4-(2-{4-amino-2-(6-chloro-1-(2-fluorobenzyl)-1H-indazol-3-yl)-5-methyl-6-oxo-6,7-dihydro-5H-pyrrolo[2,3-d]pyrimidin-5-yl}thiazol-4-yl)butanoic acid] |
|  | 407 | 98 | CC1(c2nc(CCC(=O)O)co2)C(=O)Nc2nc(-c3nn(Cc4ccccc4F)c4cc(Cl)ccc34)nc(N)c21 (stereo not shown) [Example 50A, 3-(2-{4-amino-2-(6-chloro-1-(2-fluorobenzyl)-1H-indazol-3-yl)-5-methyl-6-oxo-6,7-dihydro-5H-pyrrolo[2,3-d]pyrimidin-5-yl}oxazol-4-yl)propanoic acid] |
|  | 432 | 105 | CC1(c2nc(CCCC(=O)O)cs2)C(=O)Nc2nc(-c3nn(Cc4ccccc4F)c4ccccc34)nc(N)c21 (stereo not shown) [Example 55A, 4-(2-{4-amino-2-[1-(2-fluorobenzyl)-1H-indazol-3-yl]-5-methyl-6-oxo-6,7-dihydro-5H-pyrrolo[2,3-d]pyrimidin-5-yl}thiazol-4-yl)butanoic acid] |
|  | 1100 | 136 | C[C@@]1(c2ccc(CCC(=O)O)cc2)C(=O)Nc2nc(-c3nn(Cc4ccc(F)cc4)c4cc(Cl)ccc34)nc(N)c21 [Example 65B, (S)-3-(4-{4-amino-2-[6-chloro-1-(4-fluorobenzyl)-1H-indazol-3-yl]-5-methyl-6-oxo-6,7-dihydro-5H-pyrrolo[2,3-d]pyrimidin-5-yl}phenyl)propanoic acid] |
|  | 42 | 80 | CC(C)(Cc1coc(C2(C)C(=O)Nc3nc(-c4nn(Cc5ccccc5F)c5ccc(F)cc45)nc(N)c32)n1)C(=O)O (stereo not shown) [Example 72A, 3-(2-{4-amino-2-[5-fluoro-1-(2-fluorobenzyl)-1H-indazol-3-yl]-5-methyl-6-oxo-6,7-dihydro-5H-pyrrolo[2,3-d]pyrimidin-5-yl}oxazol-4-yl)-2,2-dimethylpropanoic acid] |
|  | 85 | 87 | C[C@@]1(c2ccc(CCC(=O)O)cc2)C(=O)Nc2nc(-c3nn(Cc4ccccc4F)c4ccc(Cl)cc34)nc(N)c21 [Example 73B, (S)-3-(4-{4-amino-2-[5-chloro-1-(2-fluorobenzyl)-1H-indazol-3-yl]-5-methyl-6-oxo-6,7-dihydro-5H-pyrrolo[2,3-d]pyrimidin-5-yl}phenyl)propanoic acid] |
|  | 62 | 94 | CC(C)(Cc1coc(C2(C)C(=O)Nc3nc(-c4nn(Cc5ccccc5F)c5ccc(Cl)cc45)nc(N)c32)n1)C(=O)O (stereo not shown) [Example 74A, 3-(2-{4-amino-2-[5-chloro-1-(2-fluorobenzyl)-1H-indazol-3-yl]-5-methyl-6-oxo-6,7-dihydro-5H-pyrrolo[2,3-d]pyrimidin-5-yl}oxazol-4-yl)-2,2-dimethylpropanoic acid] |
|  | 238 | 155 | Cc1ccc2c(-c3nc(N)c4c(n3)NC(=O)[C@@]4(C)c3nc(CC(C)(C)C(=O)O)cs3)nn(Cc3ccc(C)c(F)c3F)c2n1 [Example 75A, (S)-3-(2-{4-amino-2-[1-(2,3-difluoro-4-methylbenzyl)-6-methyl-1H-pyrazolo[3,4-b]pyridin-3-yl]-5-methyl-6-oxo-6,7-dihydro-5H-pyrrolo[2,3-d]pyrimidin-5-yl}thiazol-4-yl)-2,2-dimethylpropanoic acid] |
|  |  | 93 | CC1(c2nc(CC(=O)O)cs2)C(=O)Nc2nc(-c3nn(CCC(F)(F)C(F)(F)F)c4ncccc34)nc(N)c21 (stereo not shown) [Example 78A, (2-{4-Amino-5-methyl-6-oxo-2-[1-(3,3,4,4,4-pentafluorobutyl)-1H-pyrazolo[3,4-b]pyridin-3-yl]-6,7-dihydro-5H-pyrrolo[2,3-d]pyrimidin-5-yl}-1,3-thiazol-4-yl)acetic acid] |
